Test results reported in ChEMBL document CHEMBL5154925, “Design and Optimization of Thienopyrimidine Derivatives as Potent and Selective PI3Kδ Inhibitors for the Treatment of B-Cell Malignancies” (J Med Chem, 2022).
≈ marks a conversion by molar mass, not a printed value. Calls of active or inactive are those of the source. The rule behind the calls is not given here.

Experiments:
[1] = Tmax in ICR mouse at 30 mg/kg, po measured upto 24 hrs by LC-MS/MS analysis; type: ADME, organism-based; details: in vivo
[2] = Toxicity in nude mouse xenografted with human Pfeiffer cells assessed as effect on body weight at 5 mg/kg, ip BID for 21 days and measured twice weekly; type: organism-based; details: in vivo, 504 h, time 21 day
Pfeiffer [3] = experiment: Antiproliferative activity against human Pfeiffer cells assessed as cell growth inhibition incubated for 96 hrs by cell titer glo assay; type: functional, cell-based
Pfeiffer [4] = experiment: Antitumour activity against human Pfeiffer cells xenografted in nude mouse assessed as reduction in Ki67 expression in tumor at 5 mg/kg, ip BID for 21 days by immunohistochemical analysis; type: functional, organism-based; details: time 21.0 day
Pfeiffer [5] = experiment: Induction of apoptosis in human Pfeiffer cells assessed as necrotic cells at 2 uM incubated for 48 hrs by annexin V-FITC staining based flow cytometry (reference value: 6.62 %); type: functional
Pfeiffer [6] = experiment: Induction of apoptosis in human Pfeiffer cells assessed as late apoptotic cells at 50 uM incubated for 48 hrs by annexin V-FITC staining based flow cytometry (reference value: 7.87 %); type: functional
[7] = target: Phosphatidylinositol 4,5-bisphosphate 3-kinase catalytic subunit gamma isoform (Mus musculus, UniProt Q9JHG7); experiment: Inhibition of PI3Kgamma in C5a stimulated mouse RAW264.7 cells incubated for 10 mins by AlphaLisa assay; type: cell-based
[8] = Toxicity in nude mouse xenografted with human Pfeiffer cells assessed as effect on body weight at 75 mg/kg, po BID for 21 days and measured twice weekly; type: organism-based; details: in vivo, 504 h, time 21 day
[9] = target: Phosphatidylinositol 4,5-bisphosphate 3-kinase catalytic subunit alpha isoform (Homo sapiens, UniProt P42336); experiment: Inhibition of PI3Kalpha (unknown origin) using PIP2 as substrate measured after 1 hr in presence of ATP by ADP-glo luminescence assay
Pfeiffer [10] = experiment: Inhibition of P13K signaling pathway in human Pfeiffer cells assessed as reduction in AKT phosphorylation at S473 residue incubated for 4 hrs by Western blot analysis; type: cell-based; details: dose 2-50 µM, DDE = dose-dependent effect
Pfeiffer [11] = experiment: Inhibition of P13K signaling pathway in human Pfeiffer cells assessed as reduction in […] incubated for 4 hrs by Western blot analysis; type: cell-based; details: dose 2-50 µM, DDE = dose-dependent effect
JeKo-1 = experiment: Antiproliferative activity against human JeKo-1 cells assessed as cell growth inhibition incubated for 96 hrs by cell titer glo assay; type: functional, cell-based; details: JeKo-1, 96 h
B-cell = experiment: Inhibition of PI3Kdelta dependent mouse B-cell activation assessed as reduction in ratio of CD86 and B220 level at 0.001 to 0.1 uM stimulated with IgM for 1 hr prior to compound addition and measured after 24 hrs by flow cytometry analysis; type: functional, cell-based; details: dose 0.001-0.1 µM, time 25.0 hrs
[12] = target: Serine/threonine-protein kinase mTOR (Homo sapiens, UniProt P42345); experiment: Inhibition of mTOR (unknown origin)
[13] = target: Phosphatidylinositol 4,5-bisphosphate 3-kinase catalytic subunit gamma isoform (Homo sapiens, UniProt P48736); experiment: Inhibition of PI3Kgamma (unknown origin) using PIP2 as substrate measured after 1 hr in presence of ATP by ADP-glo luminescence assay
Pfeiffer [14] = experiment: Induction of apoptosis in human Pfeiffer cells assessed as early apoptotic cells at 2 uM incubated for 48 hrs by annexin V-FITC staining based flow cytometry (reference value: 4.16 %); type: functional
SU-DHL-6 [15] = experiment: Induction of cell cycle arrest in human SU-DHL-6 cells assessed as accumulation at G0/G1 phase at 2 to 50 uM after 24 hrs by propidium iodide and RNAase staining based flow cytometric analysis; type: functional; details: dose 2-50 µM
DOHH-2 = experiment: Antiproliferative activity against human DOHH-2 cells assessed as cell growth inhibition incubated for 96 hrs by cell titer glo assay; type: functional, cell-based; details: DOHH-2, 96 h
Pfeiffer [16] = experiment: Antitumor activity against human Pfeiffer cells xenografted in nude mouse assessed as tumor growth inhibition at 5 mg/kg, ip BID for 21 days and measured twice weekly; type: functional; details: 504 h, time 21 day, read-out: TGI
SU-DHL-6 [17] = experiment: Inhibition of P13K signaling pathway in human SU-DHL-6 cells assessed as reduction in AKT phosphorylation at S473 residue incubated for 4 hrs by Western blot analysis; type: cell-based; details: dose 2-50 µM, DDE = dose-dependent effect
[18] = Solubility of the compound in PBS; type: physicochemical
[19] = Oral bioavailability in ICR mouse at 30 mg/kg measured upto 24 hrs by LC-MS/MS analysis; type: ADME, organism-based; details: in vivo
[20] = AUC (0 to t) in ICR mouse at 3 mg/kg, iv measured upto 24 hrs by LC-MS/MS analysis; type: ADME, organism-based; parameters: time < 24 hrs, dose 3 mg/kg, route iv; details: in vivo
SU-DHL-6 [21] = experiment: Inhibition of P13K signaling pathway in human SU-DHL-6 cells assessed as reduction in […] incubated for 4 hrs by Western blot analysis; type: cell-based; details: dose 2-50 µM, DDE = dose-dependent effect
Pfeiffer [22] = experiment: Induction of apoptosis in human Pfeiffer cells assessed as viable […] cells at 2 uM incubated for 48 hrs by annexin V-FITC staining based flow cytometry (reference value: 81.14 %); type: functional

Chain of Phosphatidylinositol 4,5-bisphosphate 3-kinase catalytic subunit alpha isoform (P42336 whole entry, canonical isoform): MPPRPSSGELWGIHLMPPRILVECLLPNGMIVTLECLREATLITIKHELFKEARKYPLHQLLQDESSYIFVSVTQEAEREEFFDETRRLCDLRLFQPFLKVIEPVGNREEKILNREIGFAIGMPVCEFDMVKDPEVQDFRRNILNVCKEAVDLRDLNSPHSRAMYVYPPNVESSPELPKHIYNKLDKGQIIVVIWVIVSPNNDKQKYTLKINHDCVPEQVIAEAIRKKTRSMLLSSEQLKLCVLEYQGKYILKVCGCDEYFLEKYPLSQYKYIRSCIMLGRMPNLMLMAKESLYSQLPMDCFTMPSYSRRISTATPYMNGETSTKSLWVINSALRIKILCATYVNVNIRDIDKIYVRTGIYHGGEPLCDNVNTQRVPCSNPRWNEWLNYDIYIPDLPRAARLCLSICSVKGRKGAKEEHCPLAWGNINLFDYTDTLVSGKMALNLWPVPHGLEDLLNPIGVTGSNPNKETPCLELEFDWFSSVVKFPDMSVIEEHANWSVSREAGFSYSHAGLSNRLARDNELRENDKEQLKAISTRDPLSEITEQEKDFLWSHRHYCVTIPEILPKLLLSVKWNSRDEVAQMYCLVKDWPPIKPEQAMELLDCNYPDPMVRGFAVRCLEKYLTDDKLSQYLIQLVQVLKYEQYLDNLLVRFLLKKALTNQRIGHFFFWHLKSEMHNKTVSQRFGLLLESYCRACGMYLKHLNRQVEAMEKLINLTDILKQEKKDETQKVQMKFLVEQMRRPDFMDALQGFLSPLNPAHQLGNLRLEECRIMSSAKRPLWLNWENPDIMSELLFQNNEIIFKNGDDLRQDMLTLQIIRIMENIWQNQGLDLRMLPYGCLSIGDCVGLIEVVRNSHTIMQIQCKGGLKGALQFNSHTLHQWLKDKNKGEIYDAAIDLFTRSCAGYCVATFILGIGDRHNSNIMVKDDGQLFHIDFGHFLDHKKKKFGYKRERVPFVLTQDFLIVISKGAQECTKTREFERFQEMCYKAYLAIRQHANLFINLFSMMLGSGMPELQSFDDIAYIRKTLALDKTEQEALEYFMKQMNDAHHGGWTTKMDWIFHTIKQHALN
Chain of Phosphatidylinositol 4,5-bisphosphate 3-kinase catalytic subunit gamma isoform (Homo sapiens, UniProt P48736) (P48736 whole entry, canonical isoform): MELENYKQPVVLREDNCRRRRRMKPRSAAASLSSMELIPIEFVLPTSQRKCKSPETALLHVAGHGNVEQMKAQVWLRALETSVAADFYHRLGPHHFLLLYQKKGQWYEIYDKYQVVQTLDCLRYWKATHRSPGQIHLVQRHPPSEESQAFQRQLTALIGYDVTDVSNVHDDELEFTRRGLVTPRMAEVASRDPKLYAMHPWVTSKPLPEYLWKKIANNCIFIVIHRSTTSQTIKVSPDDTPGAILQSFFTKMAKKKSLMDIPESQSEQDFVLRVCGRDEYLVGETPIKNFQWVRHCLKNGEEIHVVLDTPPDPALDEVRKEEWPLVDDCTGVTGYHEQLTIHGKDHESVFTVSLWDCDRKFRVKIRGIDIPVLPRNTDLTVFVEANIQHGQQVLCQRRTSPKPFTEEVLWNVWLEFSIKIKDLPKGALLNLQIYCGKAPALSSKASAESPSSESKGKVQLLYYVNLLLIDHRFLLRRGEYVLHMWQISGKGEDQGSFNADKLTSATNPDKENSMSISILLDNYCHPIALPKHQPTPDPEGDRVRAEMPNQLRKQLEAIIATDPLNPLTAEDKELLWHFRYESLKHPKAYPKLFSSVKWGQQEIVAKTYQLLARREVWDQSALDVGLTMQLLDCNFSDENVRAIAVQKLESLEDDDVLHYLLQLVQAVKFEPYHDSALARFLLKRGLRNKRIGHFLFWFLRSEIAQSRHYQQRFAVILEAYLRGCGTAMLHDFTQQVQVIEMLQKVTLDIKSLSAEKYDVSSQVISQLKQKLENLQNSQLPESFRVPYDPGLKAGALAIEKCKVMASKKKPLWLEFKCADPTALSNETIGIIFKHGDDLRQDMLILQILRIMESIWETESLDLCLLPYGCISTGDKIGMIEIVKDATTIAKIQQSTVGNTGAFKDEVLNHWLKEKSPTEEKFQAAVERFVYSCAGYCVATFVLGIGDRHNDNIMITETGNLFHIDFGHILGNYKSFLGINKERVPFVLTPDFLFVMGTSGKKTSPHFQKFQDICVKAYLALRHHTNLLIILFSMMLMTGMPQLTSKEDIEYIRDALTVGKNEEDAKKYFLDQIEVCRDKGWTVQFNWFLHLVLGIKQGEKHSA
Chain of Phosphatidylinositol 4,5-bisphosphate 3-kinase catalytic subunit gamma isoform (Mus musculus, UniProt Q9JHG7) (Q9JHG7 whole entry, canonical isoform): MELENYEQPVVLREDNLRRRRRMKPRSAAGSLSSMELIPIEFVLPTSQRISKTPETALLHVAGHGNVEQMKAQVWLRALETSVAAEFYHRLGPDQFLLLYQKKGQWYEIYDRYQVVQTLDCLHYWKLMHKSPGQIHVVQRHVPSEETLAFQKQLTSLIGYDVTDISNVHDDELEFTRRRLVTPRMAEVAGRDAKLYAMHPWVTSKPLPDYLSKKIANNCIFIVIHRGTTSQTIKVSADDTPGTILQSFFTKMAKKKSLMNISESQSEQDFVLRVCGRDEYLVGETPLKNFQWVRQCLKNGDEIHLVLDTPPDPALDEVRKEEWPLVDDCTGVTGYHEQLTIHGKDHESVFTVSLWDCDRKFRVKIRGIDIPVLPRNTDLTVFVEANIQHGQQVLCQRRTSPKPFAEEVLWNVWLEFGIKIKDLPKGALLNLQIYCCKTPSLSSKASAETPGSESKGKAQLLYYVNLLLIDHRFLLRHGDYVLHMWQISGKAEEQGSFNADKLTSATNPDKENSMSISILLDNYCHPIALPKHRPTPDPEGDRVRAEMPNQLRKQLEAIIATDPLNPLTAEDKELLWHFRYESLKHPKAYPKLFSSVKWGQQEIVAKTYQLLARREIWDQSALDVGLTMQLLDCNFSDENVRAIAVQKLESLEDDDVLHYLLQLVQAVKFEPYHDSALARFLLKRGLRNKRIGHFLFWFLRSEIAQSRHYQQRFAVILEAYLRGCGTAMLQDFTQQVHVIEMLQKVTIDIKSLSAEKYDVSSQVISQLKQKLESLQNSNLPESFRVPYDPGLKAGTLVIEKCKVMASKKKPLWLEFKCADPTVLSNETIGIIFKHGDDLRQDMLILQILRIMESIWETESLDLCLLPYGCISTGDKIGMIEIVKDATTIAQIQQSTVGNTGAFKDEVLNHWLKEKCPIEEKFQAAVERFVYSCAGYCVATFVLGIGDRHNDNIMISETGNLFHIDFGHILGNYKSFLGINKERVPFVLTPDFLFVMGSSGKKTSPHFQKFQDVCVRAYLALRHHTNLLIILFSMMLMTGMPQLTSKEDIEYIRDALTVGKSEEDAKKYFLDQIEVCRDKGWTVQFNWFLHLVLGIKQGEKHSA

CCC(=O)N1CC[C@H](Nc2ncnc3sc(-c4cnc(OC)c(OC)c4)cc23)C1
Tmax [1]: 1.5 h
Activity [2]: 10%
IC50 (Pfeiffer [3]): 0.58 µM
Activity (Pfeiffer [4]): Active
Activity (Pfeiffer [5]): 5.01%
Activity (Pfeiffer [6]): 43.33%
IC50 [7]: 8.06 µM
Activity [8]: 10%
IC50 [9]: 0.31 µM
inhibition (Pfeiffer [10]): Dde
inhibition (Pfeiffer [11]): Dde
IC50 (JeKo-1): 14.7 µM
inhibition (B-cell): Active
IC50 [12]: > 10 µM
IC50 [13]: 2.68 µM
Activity (Pfeiffer [14]): 6.03%
Activity (SU-DHL-6 [15]): Active
IC50 (DOHH-2): 10.6 µM
inhibition in vivo at 5 mg/kg (Pfeiffer [16]): 69%
inhibition (SU-DHL-6 [17]): Dde
solubility [18]: 44.5 µM (≈ 18.4 µg/mL)
bioavailability [19]: 7.49%
AUC(0-t) at 24 h [20]: 1370 ng·h/mL
inhibition (SU-DHL-6 [21]): Dde
Activity (Pfeiffer [22]): 76.43%
